Earlier results, collected in patent publication US10695318B2, “Methods and compositions for improving cognitive function” (MARS, Incorporated, priority 2006, dated 2020).

System: global CBF
Details: inhalation of 5% C02 as vasodilative stimulus

In the case of `O=C=O` [C02], the “global CBF increases” value is listed as “approximately 87%”.
